# System: not listed separately
# Experiment: logP determination by HPLC (EEC Directive 79/831 Annex V. A8)
# Settings: not given
row,Structure (SMILES),chromatographic logP
1,"Nc1nnc(Br)[nH]1 [Example 185, 5-bromo-1,2,4-triazole-3-amine]",0.37

# Same assay, conditions: HPLC, gradient method, acetonitrile/0.1% aqueous phosphoric acid
row,Structure (SMILES),log.P
1,CC(C)Nc1c(-c2ccc(F)cc2F)c(Cl)nc2nc(Cl)nn12 [Example 95],3.31
2,CC(Nc1c(-c2ccc(F)cc2F)c(Cl)nc2nc(Cl)nn12)C(F)(F)F (stereo not shown) [Example 96],3.52
3,C[C@@H](Nc1c(-c2ccccc2Cl)c(Cl)nc2nc(Cl)nn12)C(F)(F)F [Example 97],3.63
4,C[C@H](Nc1c(-c2c(F)cc(F)cc2F)c(Cl)nc2nc(Br)nn12)C(F)(F)F [Example 99],3.59
5,C[C@H](Nc1c(-c2c(F)cccc2Cl)c(Cl)nc2nc(Cl)nn12)C(F)(F)F [Example 100],3.6
6,CC(C)CNc1c(-c2ccc(F)cc2F)c(Cl)nc2nc(Cl)nn12 [Example 101],3.61
7,CCC(C)Nc1c(-c2ccc(F)cc2F)c(Cl)nc2nc(Cl)nn12 (stereo not shown) [Example 102],3.63
8,Fc1ccc(-c2c(Cl)nc3nc(Cl)nn3c2NC2CCCC2)c(F)c1 [Example 103],3.79
9,COCCNc1c(-c2ccc(F)cc2F)c(Cl)nc2nc(Cl)nn12 [Example 104],2.82
10,Fc1ccc(-c2c(Cl)nc3nc(Cl)nn3c2NC2CC2)c(F)c1 [Example 105],3.01
11,Fc1ccc(-c2c(Cl)nc3nc(Cl)nn3c2NCC(F)(F)F)c(F)c1 [Example 106],3.19
12,Fc1ccc(-c2c(Cl)nc3nc(Cl)nn3c2NCC2CC2)c(F)c1 [Example 107],3.36
13,C=C(C)CNc1c(-c2ccc(F)cc2F)c(Cl)nc2nc(Cl)nn12 [Example 108],3.3
14,CC(C)CC(C)Nc1c(-c2ccc(F)cc2F)c(Cl)nc2nc(Cl)nn12 (stereo not shown) [Example 109],4.31
15,CN(C)CCN(C)c1c(-c2ccc(F)cc2F)c(Cl)nc2nc(Cl)nn12 [Example 110],1.51
16,C#CCN(C)c1c(-c2ccc(F)cc2F)c(Cl)nc2nc(Cl)nn12 [Example 111],3.21
17,CN(CC1OCCO1)c1c(-c2ccc(F)cc2F)c(Cl)nc2nc(Cl)nn12 [Example 112],3.14
18,CN(Cc1ccco1)c1c(-c2ccc(F)cc2F)c(Cl)nc2nc(Cl)nn12 [Example 113],3.69
19,CC(C)CN(C)c1c(-c2ccc(F)cc2F)c(Cl)nc2nc(Cl)nn12 [Example 114],4.08
20,COCCN(C)c1c(-c2ccc(F)cc2F)c(Cl)nc2nc(Cl)nn12 [Example 115],3.2
21,C=C(C)CN(C)c1c(-c2ccc(F)cc2F)c(Cl)nc2nc(Cl)nn12 [Example 116],3.98
22,CCN(CCN(C)C)c1c(-c2ccc(F)cc2F)c(Cl)nc2nc(Cl)nn12 [Example 117],1.65
23,C=C(C)CN(CC)c1c(-c2ccc(F)cc2F)c(Cl)nc2nc(Cl)nn12 [Example 118],4.3

row,Structure (SMILES),log.P
1,C=CCN(CC)c1c(-c2ccc(F)cc2F)c(Cl)nc2nc(Cl)nn12 [Example 119],3.95
2,CCN(Cc1ccco1)c1c(-c2ccc(F)cc2F)c(Cl)nc2nc(Cl)nn12 [Example 120],3.98
3,CCN(CC1CCCO1)c1c(-c2ccc(F)cc2F)c(Cl)nc2nc(Cl)nn12 (stereo not shown) [Example 121],3.87
4,CCN(CCOC)c1c(-c2ccc(F)cc2F)c(Cl)nc2nc(Cl)nn12 [Example 122],3.51
5,CCOC(=O)CN(CC)c1c(-c2ccc(F)cc2F)c(Cl)nc2nc(Cl)nn12 [Example 123],3.61
6,CCCCN(CC)c1c(-c2ccc(F)cc2F)c(Cl)nc2nc(Cl)nn12 [Example 124],4.5
7,CCN(CC)c1c(-c2ccc(F)cc2F)c(Cl)nc2nc(Cl)nn12 [Example 125],3.74
8,CCCN(CC1CC1)c1c(-c2ccc(F)cc2F)c(Cl)nc2nc(Cl)nn12 [Example 126],4.48
9,CCCN(CC1CCCO1)c1c(-c2ccc(F)cc2F)c(Cl)nc2nc(Cl)nn12 (stereo not shown) [Example 127],4.29
10,CCCN(CCOC)c1c(-c2ccc(F)cc2F)c(Cl)nc2nc(Cl)nn12 [Example 128],3.9
11,Fc1cccc(Cl)c1-c1c(Cl)nc2nc(Cl)nn2c1N1CCSCC1 [Example 131],3.73
12,Fc1cccc(Cl)c1-c1c(Cl)nc2nc(Cl)nn2c1N1CCOCC1 [Example 132],3.02
13,Fc1cccc(Cl)c1-c1c(Cl)nc2nc(Cl)nn2c1N1CCCC1 [Example 134],3.54
14,CCCN(CCOC)c1c(-c2c(F)cccc2Cl)c(Cl)nc2nc(Cl)nn12 [Example 135],4.06
15,C=CCN(CC)c1c(-c2c(F)cccc2Cl)c(Cl)nc2nc(Cl)nn12 [Example 137],4.16
16,CC(C)CNc1c(-c2c(F)cccc2Cl)c(Cl)nc2nc(Cl)nn12 [Example 139],3.74
17,Fc1cccc(Cl)c1-c1c(Cl)nc2nc(Cl)nn2c1NCC1CC1 [Example 143],3.49
18,COCCN(C)c1c(-c2c(F)cccc2Cl)c(Cl)nc2nc(Cl)nn12 [Example 148],3.32
19,CC(C)C(C)Nc1c(-c2ccccc2Cl)c(Cl)nc2nc(Br)nn12 (stereo not shown) [Example 170],4.18
20,CC(C)C(C)Nc1c(-c2c(F)cc(F)cc2F)c(Cl)nc2nc(Cl)nn12 (stereo not shown) [Example 171],4.01
21,CC(C)C(C)Nc1c(-c2c(F)cccc2Cl)c(Cl)nc2nc(Cl)nn12 (stereo not shown) [Example 172],4.09
22,CC(C)C(C)Nc1c(-c2ccc(F)cc2F)c(Cl)nc2nc(Cl)nn12 (stereo not shown) [Example 173],3.96
23,CC(C)C(C)Nc1c(-c2ccccc2Cl)c(Cl)nc2nc(Cl)nn12 (stereo not shown) [Example 175],4.16

# System: Podosphaera leucotricha
# Experiment: Podosphaera test (apple)/protective
# Assay type: in vivo
# Settings: Podosphaera leucotricha, 240 h, protective, application rate 100 g/ha, evaluation 10 days after inoculation, read-out: Efficacy in %
# Procedure: Podosphaera Test (Apple)/Protective [table] […] To test for protective activity, young plants are sprayed with the preparation of active compound at the stated application rate. After the spray coating has dried on, the plants are inoculated with an aqueous spore suspension of the apple mildew pathogen Podosphaera leucotricha. The plants are then placed in a greenhouse at about 23° C. and a relative atmospheric humidity of about 70%.
row,Structure (SMILES),pest or weed control at 100 g/ha [%]
1,C[C@@H](Nc1c(-c2ccccc2Cl)c(Cl)nc2nc(Cl)nn12)C(F)(F)F [drawing 32],100
2,C[C@@H](Nc1c(-c2c(F)cc(F)cc2F)c(Cl)nc2nc(Cl)nn12)C(F)(F)F [drawing 33],100
3,CC(C)Nc1c(-c2ccccc2Cl)c(Cl)nc2nc(Br)nn12 [drawing 34],87
4,CCC(C)CNc1c(-c2c(F)cc(F)cc2F)c(Cl)nc2nc(Cl)nn12 (stereo not shown) [drawing 35],100
5,CCC(C)CNc1c(-c2c(F)cc(F)cc2F)c(Cl)nc2nc(Br)nn12 (stereo not shown) [drawing 36],94
6,Clc1nc2nc(Cl)c(-c3ccccc3Cl)c(NCC3CC3)n2n1 [drawing 37],97
7,C[C@H](Nc1c(-c2c(F)cc(F)cc2F)c(Cl)nc2nc(Br)nn12)C(F)(F)F [drawing 38],100
8,CC(C)CNc1c(-c2ccc(F)cc2F)c(Cl)nc2nc(Cl)nn12 [drawing 40],100
9,C[C@H](Nc1c(-c2c(F)cccc2Cl)c(Cl)nc2nc(Cl)nn12)C(F)(F)F [drawing 41],100
10,Fc1ccc(-c2c(Cl)nc3nc(Cl)nn3c2N[C@@H](Cl)C(F)(F)F)c(F)c1 [drawing 42],100
11,Fc1cccc(Cl)c1-c1c(Cl)nc2nc(Cl)nn2c1N1CCCC1 [drawing 43],93
12,C=CCN(CC)c1c(-c2c(F)cccc2Cl)c(Cl)nc2nc(Cl)nn12 [drawing 44],95
13,CC(C)CNc1c(-c2c(F)cccc2Cl)c(Cl)nc2nc(Cl)nn12 [drawing 45],100
14,Fc1cccc(Cl)c1-c1c(Cl)nc2nc(Cl)nn2c1NCC1CC1 [drawing 46],100
15,COCCN(C)c1c(-c2c(F)cccc2Cl)c(Cl)nc2nc(Cl)nn12 [drawing 47],100
16,COc1nc2nc(Cl)c(-c3c(F)cc(F)cc3OC)c(NC(C)C(F)(F)F)n2n1 (stereo not shown) [drawing 49],83

# Same assay, conditions: Podosphaera leucotricha, 240 h, protective, application rate 199 g/ha, evaluation 10 days after inoculation, read-out: Efficacy in %
row,Structure (SMILES),pest or weed control at 199 g/ha [%]
1,CC1CCCN(c2c(-c3c(F)cc(F)cc3F)c(Cl)nc3nc(Cl)nn23)C1 (stereo not shown) [drawing 39],94

# Same assay, conditions: protective, application rate 100 g/ha, evaluation 10 days after inoculation
row,Structure (SMILES),Efficacy in % [%]
1,C=C(C)CN(C)c1c(-c2c(F)cccc2Cl)c(Cl)nc2nc(Cl)nn12 [drawing 48],100

# System: Venturia inaequalis
# Experiment: Venturia test (apple)/protective
# Assay type: in vivo
# Settings: Venturia inaequalis, 240 h, protective, application rate 100 g/ha, evaluation 10 days after inoculation, read-out: Efficacy in %
# Procedure: Venturia Test (Apple)/Protective [table] To produce a suitable preparation of active compound, 1 part by weight of active compound is mixed with the stated amounts of solvent and emulsifier, and the concentrate is diluted with water to the desired concentration. To test for protective activity, young plants are sprayed with the preparation of active compound at the stated application rate. […] The plants are then placed in a greenhouse at about 21° C. and a relative atmospheric humidity of about […].
row,Structure (SMILES),pest or weed control at 100 g/ha [%]
1,C[C@@H](Nc1c(-c2ccccc2Cl)c(Cl)nc2nc(Cl)nn12)C(F)(F)F [drawing 50],100
2,C[C@@H](Nc1c(-c2c(F)cc(F)cc2F)c(Cl)nc2nc(Cl)nn12)C(F)(F)F [drawing 51],100
3,CC(C)Nc1c(-c2ccccc2Cl)c(Cl)nc2nc(Br)nn12 [drawing 52],98
4,CCC(C)CNc1c(-c2c(F)cc(F)cc2F)c(Cl)nc2nc(Cl)nn12 (stereo not shown) [drawing 53],83
5,CCC(C)CNc1c(-c2c(F)cc(F)cc2F)c(Cl)nc2nc(Br)nn12 (stereo not shown) [drawing 54],80
6,Clc1nc2nc(Cl)c(-c3ccccc3Cl)c(NCC3CC3)n2n1 [drawing 55],96
7,C[C@H](Nc1c(-c2c(F)cc(F)cc2F)c(Cl)nc2nc(Br)nn12)C(F)(F)F [drawing 56],99
8,CC1CCCN(c2c(-c3c(F)cc(F)cc3F)c(Cl)nc3nc(Cl)nn23)C1 (stereo not shown) [drawing 57],96
9,CC(C)CNc1c(-c2ccc(F)cc2F)c(Cl)nc2nc(Cl)nn12 [drawing 58],85
10,C[C@H](Nc1c(-c2c(F)cccc2Cl)c(Cl)nc2nc(Cl)nn12)C(F)(F)F [drawing 59],100
11,Fc1ccc(-c2c(Cl)nc3nc(Cl)nn3c2N[C@@H](Cl)C(F)(F)F)c(F)c1 [drawing 60],100
